# Experimental data published in article PMC8333062, “Chemical tools for epichaperome-mediated interactome dysfunctions of the central nervous system” (Nature Communications, 2021).
# “And” between values parts separate entries of the source, which are not always exact repeats. Identical values can stand only once.
# How the values were obtained:
# patient-derived GSCs = test: GSC viability (CellTiter-Glo, 48 h); format: cell-based, human; parameters: %Survival of cells at day 0 (ATP levels): concentration or dose not given beside the values; %Survival (ATP levels): reference not given here; conditions: for %Survival (ATP levels): 1 μM, 48 h, individual replicates, listed as PU-HZ151; for %Survival of cells at day 0 (ATP levels): mean
# CYP2C9 = target: T1, CYP2C9 (Homo sapiens, UniProt P11712); test: Cytochrome P450 profiling, sulfaphenazole; format: in vitro ADME; conditions: for % PU-HZ151 remaining: Sulfaphenazole
# T1 construct: PU-HZ151 (1 µM) was incubated with human liver microsomes (0.5 mg protein mL^−1); tissue Life Technologies HMMCPL; host or cells: human liver microsomes
# T1 sequence (P11712 whole entry): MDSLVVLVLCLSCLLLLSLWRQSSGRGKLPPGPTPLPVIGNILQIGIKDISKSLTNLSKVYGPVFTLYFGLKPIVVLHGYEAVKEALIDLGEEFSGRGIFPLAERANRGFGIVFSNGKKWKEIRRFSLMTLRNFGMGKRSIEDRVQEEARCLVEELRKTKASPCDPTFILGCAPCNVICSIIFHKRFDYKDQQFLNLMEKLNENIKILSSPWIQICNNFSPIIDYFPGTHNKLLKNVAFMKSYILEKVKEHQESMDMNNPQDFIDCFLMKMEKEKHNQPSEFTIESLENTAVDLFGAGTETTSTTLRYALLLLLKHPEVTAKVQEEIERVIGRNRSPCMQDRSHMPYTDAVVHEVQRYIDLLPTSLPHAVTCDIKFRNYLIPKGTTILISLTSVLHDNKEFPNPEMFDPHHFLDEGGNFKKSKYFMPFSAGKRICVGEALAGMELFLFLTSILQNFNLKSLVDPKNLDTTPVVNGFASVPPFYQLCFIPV
# Procedure: To identify cytochrome P450 enzymes responsible for PU-HZ151’s metabolism in human liver microsomes the following procedure was followed. Phosphate buffer (100 mM, pH 7.4) was prepared monthly and stored at 4 °C. Frozen stock solutions of human liver microsomes (Life Technologies; Cat# HMMCPL) were used once after thawing and were not refrozen. NADPH stock solution (50 mM) in distilled water was prepared fresh daily. […] The stock solutions of these P450 inhibitors were prepared in DMSO. […] The concentration of the chemical inhibitors used in the assay were furafylline (10 μM), tranylcypromine (2 μM), ketoconazole (1 μM), troleandomycin (20 μM), orphenadrine (50 μM), montelukast (3 μM), sulfaphenazole (10 μM), benzylnirvanol (1 μM), quinidine (1 μM), and 1-aminobenzotriazole (1 mM) for all the P450 enzymes. Timing of the reactions was started following the addition of NADPH/magnesium chloride mix and PU-HZ151. Time-dependent chemical inhibitors (furafylline, troleandomycin, orphenadrine, and 1-aminobenzotriazole) were preincubated with human microsomes in the presence of NADPH and magnesium chloride for 15 min before the addition of PU-HZ151 and timing of reactions was started after addition of PU-HZ151. […] Following brief vortexing and centrifugation, a 200 µL aliquot of the supernatant was transferred to a tube, and 10 µL of haloperidol (1 µg mL^−1) as internal standard was added. Following brief vortexing and centrifugation, 50 µL of supernatant was added to a 96-well plate for subsequent LC-MS/MS analysis. PU-HZ151 was similarly tested as above in the absence of CYP inhibitors for comparative purposes. All samples were assayed in duplicate. […] This was similarly performed for incubations of PU-HZ151 performed in the absence of CYP inhibitor.
# HER2 in SKBR3 cells = test: HER2 degradation; format: cell-based, human
# 97 kinases [1] = target: T2, 97 kinases (Homo sapiens, UniProt O00750); test: scanEDGE off-target screen; format: binding; conditions: read-out: %Ctrl PIK3C2B
# T2 construct: purchased Ambit Biosciences (scanEDGE / KINOMEscan) scanEDGE 97 kinase panel; host or cells: T7 phage in E. coli BL21-derived host; remaining kinases in HEK-293 cells
# 97 kinases [2] = target: T3, 97 kinases (Homo sapiens, UniProt P08069); test: scanEDGE off-target screen; format: binding; conditions: read-out: %Ctrl IGF1R
# T3 construct: purchased Ambit Biosciences (scanEDGE / KINOMEscan) scanEDGE 97 kinase panel; host or cells: T7 phage in E. coli BL21-derived host; remaining kinases in HEK-293 cells
# 97 kinases [3] = target: T4, 97 kinases (Homo sapiens, UniProt P24941); test: scanEDGE off-target screen; format: binding; conditions: read-out: %Ctrl CDK2
# T4 construct: purchased Ambit Biosciences (scanEDGE / KINOMEscan) scanEDGE 97 kinase panel; host or cells: T7 phage in E. coli BL21-derived host; remaining kinases in HEK-293 cells
# 97 kinases [4] = target: T5, 97 kinases (Homo sapiens, UniProt P36888); test: scanEDGE off-target screen; format: binding; conditions: read-out: %Ctrl FLT3
# T5 construct: purchased Ambit Biosciences (scanEDGE / KINOMEscan) scanEDGE 97 kinase panel; host or cells: T7 phage in E. coli BL21-derived host; remaining kinases in HEK-293 cells
# T5 sequence (P36888 27-993): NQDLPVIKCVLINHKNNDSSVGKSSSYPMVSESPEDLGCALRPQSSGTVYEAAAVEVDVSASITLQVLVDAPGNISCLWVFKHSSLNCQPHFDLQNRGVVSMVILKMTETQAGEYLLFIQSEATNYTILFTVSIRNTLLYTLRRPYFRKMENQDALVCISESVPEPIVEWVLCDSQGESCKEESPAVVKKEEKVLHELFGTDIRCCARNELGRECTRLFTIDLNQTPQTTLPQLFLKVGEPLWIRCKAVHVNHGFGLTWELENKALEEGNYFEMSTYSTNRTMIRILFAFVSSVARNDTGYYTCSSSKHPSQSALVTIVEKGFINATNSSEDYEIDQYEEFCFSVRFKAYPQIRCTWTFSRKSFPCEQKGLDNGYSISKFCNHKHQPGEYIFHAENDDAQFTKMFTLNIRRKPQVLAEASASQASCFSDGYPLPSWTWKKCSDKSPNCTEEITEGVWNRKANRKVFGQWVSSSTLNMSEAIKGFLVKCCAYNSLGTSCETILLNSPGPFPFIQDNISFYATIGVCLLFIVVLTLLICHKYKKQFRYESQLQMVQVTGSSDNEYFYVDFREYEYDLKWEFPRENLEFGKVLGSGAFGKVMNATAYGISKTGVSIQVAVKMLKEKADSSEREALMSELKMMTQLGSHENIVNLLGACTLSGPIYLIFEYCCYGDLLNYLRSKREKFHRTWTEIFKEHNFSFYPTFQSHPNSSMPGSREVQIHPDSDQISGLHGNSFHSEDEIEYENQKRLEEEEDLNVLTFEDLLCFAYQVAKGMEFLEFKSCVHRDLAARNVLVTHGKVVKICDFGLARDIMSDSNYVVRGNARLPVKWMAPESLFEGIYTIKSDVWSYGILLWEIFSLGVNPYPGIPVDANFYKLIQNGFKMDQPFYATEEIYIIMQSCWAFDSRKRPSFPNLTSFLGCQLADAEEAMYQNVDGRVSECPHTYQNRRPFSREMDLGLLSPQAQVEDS
# 97 kinases [5] = target: T6, 97 kinases (Homo sapiens, UniProt P48730); test: scanEDGE off-target screen; format: binding; conditions: read-out: %Ctrl CSNK1D
# T6 construct: purchased Ambit Biosciences (scanEDGE / KINOMEscan) scanEDGE 97 kinase panel; host or cells: T7 phage in E. coli BL21-derived host; remaining kinases in HEK-293 cells
# 97 kinases [6] = target: T7, 97 kinases (Homo sapiens, UniProt P49137); test: scanEDGE off-target screen; format: binding; conditions: read-out: %Ctrl MAPKAPK2
# T7 construct: purchased Ambit Biosciences (scanEDGE / KINOMEscan) scanEDGE 97 kinase panel; host or cells: T7 phage in E. coli BL21-derived host; remaining kinases in HEK-293 cells
# T7 sequence (P49137 whole entry): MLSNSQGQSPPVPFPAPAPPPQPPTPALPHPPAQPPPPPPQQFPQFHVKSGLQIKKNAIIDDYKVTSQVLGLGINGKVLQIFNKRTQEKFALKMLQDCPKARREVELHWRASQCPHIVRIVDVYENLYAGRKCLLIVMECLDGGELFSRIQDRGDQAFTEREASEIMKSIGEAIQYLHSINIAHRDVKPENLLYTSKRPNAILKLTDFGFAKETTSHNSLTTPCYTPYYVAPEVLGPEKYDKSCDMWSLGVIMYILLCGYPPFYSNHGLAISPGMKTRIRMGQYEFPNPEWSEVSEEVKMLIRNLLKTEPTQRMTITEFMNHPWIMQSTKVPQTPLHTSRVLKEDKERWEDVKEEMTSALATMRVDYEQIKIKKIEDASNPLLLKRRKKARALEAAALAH
# 97 kinases [7] = target: T8, 97 kinases (Homo sapiens, UniProt P49841); test: scanEDGE off-target screen; format: binding; conditions: read-out: %Ctrl GSK3B
# T8 construct: purchased Ambit Biosciences (scanEDGE / KINOMEscan) scanEDGE 97 kinase panel; host or cells: T7 phage in E. coli BL21-derived host; remaining kinases in HEK-293 cells
# T8 sequence (P49841 whole entry): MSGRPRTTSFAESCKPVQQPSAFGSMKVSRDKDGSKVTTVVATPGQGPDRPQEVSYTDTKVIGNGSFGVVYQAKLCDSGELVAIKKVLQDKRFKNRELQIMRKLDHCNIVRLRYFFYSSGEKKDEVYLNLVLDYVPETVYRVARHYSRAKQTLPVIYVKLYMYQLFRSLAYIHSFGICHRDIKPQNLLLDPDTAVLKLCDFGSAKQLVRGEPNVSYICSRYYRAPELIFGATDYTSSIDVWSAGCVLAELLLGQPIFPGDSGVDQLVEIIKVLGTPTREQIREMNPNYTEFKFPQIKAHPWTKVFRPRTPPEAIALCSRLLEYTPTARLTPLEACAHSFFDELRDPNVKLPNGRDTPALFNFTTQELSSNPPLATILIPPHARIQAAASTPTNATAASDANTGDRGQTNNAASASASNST
# 97 kinases [8] = target: T9, 97 kinases (Homo sapiens, UniProt P50750); test: scanEDGE off-target screen; format: binding; conditions: read-out: %Ctrl CDK9
# T9 construct: purchased Ambit Biosciences (scanEDGE / KINOMEscan) scanEDGE 97 kinase panel; host or cells: T7 phage in E. coli BL21-derived host; remaining kinases in HEK-293 cells
# 97 kinases [9] = target: T10, 97 kinases (Homo sapiens, UniProt P78368); test: scanEDGE off-target screen; format: binding; conditions: read-out: %Ctrl CSNK1G2
# T10 construct: purchased Ambit Biosciences (scanEDGE / KINOMEscan) scanEDGE 97 kinase panel; host or cells: T7 phage in E. coli BL21-derived host; remaining kinases in HEK-293 cells
# T10 sequence (P78368 whole entry): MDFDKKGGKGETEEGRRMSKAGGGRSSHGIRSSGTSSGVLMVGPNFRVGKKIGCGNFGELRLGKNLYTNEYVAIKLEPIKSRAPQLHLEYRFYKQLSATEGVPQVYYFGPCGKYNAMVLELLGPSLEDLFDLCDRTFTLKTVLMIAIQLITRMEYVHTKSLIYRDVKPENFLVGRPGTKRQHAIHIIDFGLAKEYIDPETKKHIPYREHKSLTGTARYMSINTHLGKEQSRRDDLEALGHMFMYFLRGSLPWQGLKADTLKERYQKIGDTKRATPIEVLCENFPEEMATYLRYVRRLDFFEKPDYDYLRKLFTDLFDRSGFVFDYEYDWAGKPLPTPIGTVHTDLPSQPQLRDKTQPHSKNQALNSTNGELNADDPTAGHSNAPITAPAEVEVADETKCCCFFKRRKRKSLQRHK
# 97 kinases [10] = target: T11, 97 kinases (Homo sapiens, UniProt Q00526); test: scanEDGE off-target screen; format: binding; conditions: read-out: %Ctrl CDK3
# T11 construct: purchased Ambit Biosciences (scanEDGE / KINOMEscan) scanEDGE 97 kinase panel; host or cells: T7 phage in E. coli BL21-derived host; remaining kinases in HEK-293 cells
# T11 sequence (Q00526 whole entry): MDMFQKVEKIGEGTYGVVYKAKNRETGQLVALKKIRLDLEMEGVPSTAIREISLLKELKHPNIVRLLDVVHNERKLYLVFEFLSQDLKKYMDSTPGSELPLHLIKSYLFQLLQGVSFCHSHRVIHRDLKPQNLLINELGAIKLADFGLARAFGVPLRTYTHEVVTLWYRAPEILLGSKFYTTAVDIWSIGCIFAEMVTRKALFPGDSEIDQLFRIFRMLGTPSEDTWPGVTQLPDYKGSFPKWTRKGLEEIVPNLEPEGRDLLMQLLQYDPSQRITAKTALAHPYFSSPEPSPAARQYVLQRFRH
# 97 kinases [11] = target: T12, 97 kinases (Homo sapiens, UniProt Q02156); test: scanEDGE off-target screen; format: binding; conditions: read-out: %Ctrl PRKCE
# T12 construct: purchased Ambit Biosciences (scanEDGE / KINOMEscan) scanEDGE 97 kinase panel; host or cells: T7 phage in E. coli BL21-derived host; remaining kinases in HEK-293 cells
# T12 sequence (Q02156 whole entry): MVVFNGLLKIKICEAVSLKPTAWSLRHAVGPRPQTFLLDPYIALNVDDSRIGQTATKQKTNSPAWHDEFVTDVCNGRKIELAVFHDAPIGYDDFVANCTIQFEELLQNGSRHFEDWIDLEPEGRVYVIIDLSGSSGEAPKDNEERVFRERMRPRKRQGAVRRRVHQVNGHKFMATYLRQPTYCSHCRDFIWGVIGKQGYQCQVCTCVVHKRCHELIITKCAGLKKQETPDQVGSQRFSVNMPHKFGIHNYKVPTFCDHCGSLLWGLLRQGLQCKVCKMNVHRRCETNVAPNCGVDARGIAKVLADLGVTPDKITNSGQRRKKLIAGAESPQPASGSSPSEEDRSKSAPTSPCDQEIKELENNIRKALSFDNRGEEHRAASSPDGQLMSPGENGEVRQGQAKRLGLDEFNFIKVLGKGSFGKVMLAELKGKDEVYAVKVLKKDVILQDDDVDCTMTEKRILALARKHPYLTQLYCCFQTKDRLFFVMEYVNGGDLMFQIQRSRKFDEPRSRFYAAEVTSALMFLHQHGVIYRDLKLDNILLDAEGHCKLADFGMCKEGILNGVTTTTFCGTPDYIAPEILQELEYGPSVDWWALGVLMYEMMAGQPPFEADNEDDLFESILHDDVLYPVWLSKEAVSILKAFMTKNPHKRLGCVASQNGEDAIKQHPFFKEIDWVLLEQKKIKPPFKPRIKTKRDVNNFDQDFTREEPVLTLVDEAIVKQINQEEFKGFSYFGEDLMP
# 97 kinases [12] = target: T13, 97 kinases (Homo sapiens, UniProt Q16539); test: scanEDGE off-target screen; format: binding; conditions: read-out: %Ctrl p38-alpha
# T13 construct: purchased Ambit Biosciences (scanEDGE / KINOMEscan) scanEDGE 97 kinase panel; host or cells: T7 phage in E. coli BL21-derived host; remaining kinases in HEK-293 cells
# 97 kinases [13] = target: T14, 97 kinases (Homo sapiens, UniProt Q8IYT8); test: scanEDGE off-target screen; format: binding; conditions: read-out: %Ctrl ULK2
# T14 construct: purchased Ambit Biosciences (scanEDGE / KINOMEscan) scanEDGE 97 kinase panel; host or cells: T7 phage in E. coli BL21-derived host; remaining kinases in HEK-293 cells
# 97 kinases [14] = target: T15, 97 kinases (Homo sapiens, UniProt Q96GD4); test: scanEDGE off-target screen; format: binding; conditions: read-out: %Ctrl AURKB
# T15 construct: purchased Ambit Biosciences (scanEDGE / KINOMEscan) scanEDGE 97 kinase panel; host or cells: T7 phage in E. coli BL21-derived host; remaining kinases in HEK-293 cells
# 97 kinases [15] = target: T16, 97 kinases (Homo sapiens, UniProt Q9BVS4); test: scanEDGE off-target screen; format: binding; conditions: read-out: %Ctrl RIOK2
# T16 construct: purchased Ambit Biosciences (scanEDGE / KINOMEscan) scanEDGE 97 kinase panel; host or cells: T7 phage in E. coli BL21-derived host; remaining kinases in HEK-293 cells
# T16 sequence (Q9BVS4 whole entry): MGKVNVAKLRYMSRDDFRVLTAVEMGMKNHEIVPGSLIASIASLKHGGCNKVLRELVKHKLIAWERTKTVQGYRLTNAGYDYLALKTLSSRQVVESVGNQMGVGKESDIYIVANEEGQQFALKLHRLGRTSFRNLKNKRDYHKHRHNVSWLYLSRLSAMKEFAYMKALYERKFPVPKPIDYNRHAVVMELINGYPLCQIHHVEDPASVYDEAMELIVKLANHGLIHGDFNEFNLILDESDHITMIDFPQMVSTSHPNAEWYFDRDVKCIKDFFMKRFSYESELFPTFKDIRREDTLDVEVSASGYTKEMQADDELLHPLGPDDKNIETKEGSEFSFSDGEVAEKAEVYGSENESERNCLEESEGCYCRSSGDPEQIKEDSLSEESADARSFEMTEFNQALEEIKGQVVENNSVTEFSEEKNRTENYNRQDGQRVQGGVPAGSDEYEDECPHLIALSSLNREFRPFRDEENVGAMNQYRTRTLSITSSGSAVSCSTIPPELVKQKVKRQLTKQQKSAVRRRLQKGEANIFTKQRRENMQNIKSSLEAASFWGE
# 97 kinases [16] = target: T17, 97 kinases (Homo sapiens, UniProt Q9BWU1); test: scanEDGE off-target screen; format: binding; conditions: read-out: %Ctrl CDK11
# T17 construct: purchased Ambit Biosciences (scanEDGE / KINOMEscan) scanEDGE 97 kinase panel; host or cells: T7 phage in E. coli BL21-derived host; remaining kinases in HEK-293 cells
# 97 kinases [17] = target: T18, 97 kinases (Homo sapiens, UniProt Q9H093); test: scanEDGE off-target screen; format: binding; conditions: read-out: %Ctrl SNARK
# T18 construct: purchased Ambit Biosciences (scanEDGE / KINOMEscan) scanEDGE 97 kinase panel; host or cells: T7 phage in E. coli BL21-derived host; remaining kinases in HEK-293 cells
# T18 sequence (Q9H093 whole entry): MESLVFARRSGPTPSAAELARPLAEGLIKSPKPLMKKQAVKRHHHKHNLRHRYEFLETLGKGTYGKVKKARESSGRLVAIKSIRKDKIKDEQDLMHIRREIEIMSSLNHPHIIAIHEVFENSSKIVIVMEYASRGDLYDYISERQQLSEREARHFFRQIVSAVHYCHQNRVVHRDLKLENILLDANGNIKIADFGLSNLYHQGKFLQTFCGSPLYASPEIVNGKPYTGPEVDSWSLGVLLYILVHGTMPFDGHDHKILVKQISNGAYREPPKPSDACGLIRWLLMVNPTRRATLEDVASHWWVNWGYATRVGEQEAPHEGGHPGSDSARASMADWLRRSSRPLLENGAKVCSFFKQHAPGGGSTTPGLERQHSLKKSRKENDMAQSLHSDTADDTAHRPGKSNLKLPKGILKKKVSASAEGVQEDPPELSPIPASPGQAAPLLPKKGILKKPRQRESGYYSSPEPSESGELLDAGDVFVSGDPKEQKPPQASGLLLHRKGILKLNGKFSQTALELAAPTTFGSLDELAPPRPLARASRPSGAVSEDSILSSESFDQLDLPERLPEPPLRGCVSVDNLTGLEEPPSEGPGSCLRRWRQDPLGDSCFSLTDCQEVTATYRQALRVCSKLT
# 97 kinases [18] = target: T19, 97 kinases (Homo sapiens, UniProt Q9UM73); test: scanEDGE off-target screen; format: binding; conditions: read-out: %Ctrl ALK
# T19 construct: purchased Ambit Biosciences (scanEDGE / KINOMEscan) scanEDGE 97 kinase panel; host or cells: T7 phage in E. coli BL21-derived host; remaining kinases in HEK-293 cells
# 97 kinases [19] = target: T20, 97 kinases (Homo sapiens, UniProt Q9Y6R4); test: scanEDGE off-target screen; format: binding; conditions: read-out: %Ctrl MAP3K4
# T20 construct: purchased Ambit Biosciences (scanEDGE / KINOMEscan) scanEDGE 97 kinase panel; host or cells: T7 phage in E. coli BL21-derived host; remaining kinases in HEK-293 cells
compound,measurement,setting,value
CC(C)(C)CNCCn1c(Sc2cc3c(cc2I)OCO3)nc2c(N)ncnc21 [Compound 85],%Survival (ATP levels),patient-derived GSCs; GSC #5,31.63% and 18.68% and 4.03% and -9.88%
same,%Survival (ATP levels),patient-derived GSCs; GSC #6,-14.27% and -27.68% and -18.96% and -23.61%
same,%Survival (ATP levels),patient-derived GSCs; GSC #7,-51.27% and -33.16% and -43.96% and -19.32%
same,%Survival (ATP levels),patient-derived GSCs; GSC #8,-82.2411% and -82.5656% and -44.1066% and -65.5015% and -65.6835% and -64.1317%
same,%Survival (ATP levels),patient-derived GSCs; GSC #9,-79.4354% and -88.1536% and -74.4757% and -75.2771% and -91.5176% and -88.8402%
same,%Survival (ATP levels),patient-derived GSCs; GSC #10,-43.1943% and -48.7032% and -76.5217% and -90.9365%
same,%Survival (ATP levels),patient-derived GSCs; GSC #13,-9.18% and -20.17% and 1.94% and -5.51% and 23.62% and 22.18%
same,%Survival (ATP levels),patient-derived GSCs; GSC #15,-58.61% and -73.45% and -36.64% and -48.92%
same,%Survival (ATP levels),patient-derived GSCs; GSC #18,-64.4% and -60.27% and -57.05% and -50.97%
same,%Survival (ATP levels),patient-derived GSCs; GSC #19,-11.96% and -35.33% and -40.35% and -2.66% and -9.81%
same,%Survival (ATP levels),patient-derived GSCs; GSC #24,-81.22% and -79.53% and -20.38% and -28.49%
same,%Survival (ATP levels),patient-derived GSCs; GSC #30,-95.74% and -99.62% and -58.98% and -67.84% and -66.79% and -85.07% and -94.89%
same,%Survival (ATP levels),patient-derived GSCs; GSC #31,36.5% and 32.49% and 59.07% and 79.62% and 33.55% and 9%
same,%Survival of cells at day 0 (ATP levels),patient-derived GSCs; GSC# 5,11.1%
same,%Survival of cells at day 0 (ATP levels),patient-derived GSCs; GSC# 6,-21.1%
same,%Survival of cells at day 0 (ATP levels),patient-derived GSCs; GSC# 8,-67.4%
same,%Survival of cells at day 0 (ATP levels),patient-derived GSCs; GSC# 9,-82.9%
same,%Survival of cells at day 0 (ATP levels),patient-derived GSCs; GSC# 10,-64.8%
same,%Survival of cells at day 0 (ATP levels),patient-derived GSCs; GSC# 13,2.1%
same,%Survival of cells at day 0 (ATP levels),patient-derived GSCs; GSC# 15,-54.4%
same,%Survival of cells at day 0 (ATP levels),patient-derived GSCs; GSC# 17,16.9%
same,%Survival of cells at day 0 (ATP levels),patient-derived GSCs; GSC# 18,-58.2%
same,%Survival of cells at day 0 (ATP levels),patient-derived GSCs; GSC# 19,-20%
same,%Survival of cells at day 0 (ATP levels),patient-derived GSCs; GSC# 24,-52.4%
same,%Survival of cells at day 0 (ATP levels),patient-derived GSCs; GSC# 30,-81.3%
same,%Survival of cells at day 0 (ATP levels),patient-derived GSCs; GSC# 31,41.7%
same,% PU-HZ151 remaining,CYP2C9; 15 min,70.5%
same,% PU-HZ151 remaining,CYP2C9; 30 min,54.1%
same,% PU-HZ151 remaining,CYP2C9; 60 min,36.5%
same,inhibition of PU-HZ151 metabolism,CYP2C9; sulfaphenazole,23%
same,IC50,HER2 in SKBR3 cells,8.2 nM
same,remaining binding at 10 µM,97 kinases [1],96%
same,remaining binding at 10 µM,97 kinases [2],100%
same,remaining binding at 10 µM,97 kinases [3],98%
same,remaining binding at 10 µM,97 kinases [4],100%
same,remaining binding at 10 µM,97 kinases [5],91%
same,remaining binding at 10 µM,97 kinases [6],96%
same,remaining binding at 10 µM,97 kinases [7],88%
same,remaining binding at 10 µM,97 kinases [8],91%
same,remaining binding at 10 µM,97 kinases [9],100%
same,remaining binding at 10 µM,97 kinases [10],100%
same,remaining binding at 10 µM,97 kinases [11],100%
same,remaining binding at 10 µM,97 kinases [12],100%
same,remaining binding at 10 µM,97 kinases [13],94%
same,remaining binding at 10 µM,97 kinases [14],73%
same,remaining binding at 10 µM,97 kinases [15],94%
same,remaining binding at 10 µM,97 kinases [16],90%
same,remaining binding at 10 µM,97 kinases [17],100%
same,remaining binding at 10 µM,97 kinases [18],93%
same,remaining binding at 10 µM,97 kinases [19],49%
